Measurements from patent US20110306579A1, “METHODS OF NEUROPROTECTION USING NEUROPROTECTIVE STEROIDS AND A VITAMIN D” (EMORY UNIVERSITY, priority 2009, published 2011).

Experiments:
[1] = system: MAPK (ERK1/2); assay: MAPK phosphorylation (p-ERK1/2 Western blot) in primary cortical neurons; assay type: cell-based, rat; conditions: PROG 20 μM, 30-minute treatment
Method: PROG and VDH were added to the primary cultures, as described above, for 30 minutes ([…], et al., (2002) Endocrinology 143: 205-212) and the cells were lysed using RIPA lysis buffer kit (sc-24948, Santa Cruz, Calif., USA). Protein was determined in cell lysates by bicinchoninic acid (BCA) protein assay (Cat. # 23225, Pierce, Rockford, Ill., USA). Cell lysates (40 μg protein each sample) were separated under reducing and denaturing conditions by 12.5% acrylamide Criterion gel (BioRad, Hercules, Calif., USA) at 200V for 1 hour and transferred to a polyvinylidene difluoride (PVDF) membrane at 100V for 30 minutes. The non-specific binding sites of the membrane were blocked with 5% non-fat dry milk in PBS-T (phosphate buffered saline containing 0.05% Tween-20). […] Membranes were then incubated in horseradish peroxidase (HRP)-conjugated secondary antibody (Goat anti-rabbit IgG; 074-1506, KPL, Gaithersburg, Md., USA). β-actin was probed as a loading control. Blots were developed using a chemiluminescent substrate (Pierce) for 5 minutes.

[2] = system: 20-month old Fischer 344 rats; assay: Cerebral edema analysis after cortical contusion brain injury; assay type: in vivo, rat; conditions: 4 mg/kg
Method: The methodology used is described in VanLandingham et al., Neuropharmacology, 2006, 51, 1078-1085.
Sterile surgical procedures were used to prevent animal infection. Rats (20-month old Fischer 344 rats, which are the “human” equivalent of about 60 years old) were anesthetized and maintained on isoflurane and an equivalent amount of […] and O2 for 3 min prior to surgery. After brain contusion, O2 levels were doubled compared to […] and maintained through the reainder of the surgery procedure. A stereotaxic apparatus was used to stabilize the head in a horizontal position. Core body temperature was monitored and maintained at 37° C. using a Harvard homeothermic blanket (Harvard Apparatus, Holliston, Mass.). There was no direct measure used to deterct brain temperature. Blood oxygen and heart rate were maintained using a SurgiVet monitor (SurgiVet, Waukesha, Wis.) and maintained above 90% and 340 bpm respectively. A midline incision was made and the scalp retracted. A bilateral 6-mm craniotomy was performed with surgical drill centered at 3 mm rostral to bregma. The stainless steel impactor was positioned over the MFC at 3.0 mm A/P and 0.0 M/L. These coordinates represent the MFC as described by Paxinos and Watson (The Rat Brain in Stereotaxic Coordinates, Academic Press, San Diego, 1986). The cortical injury was induced using a pneumatically controlled device (Hoffman et al., J. Neurotrauma, 1994, 11, 417-431). Brain impact duration was 0.5 s. using a 5-mm impactor tip with a velocity set at 2.125 m/s and a cortical depth of 2 mm. Following the contusion, bleeding was halded and fascia and scalp were sutured shut. After surgery, animals were allowed to recover from anesthesia on a homeothermic heating blanket in a holding cage until awake. sham surgeries controlled for anesthesia and stress. All surgical procedures were the same, except that sham rates were not given a craniotomy or cortical injury. Previous studies using craniotomy as a control found no differences between shams with or without this procedure. (Goss et al., Pharmacol. Biochem. Behay. 2003, 76(2), 231-242).
These experimental solutions were then diluted 1:1 with sterile water for a final concentration of HBC of 22.5%.
All injections were done at the same time with brain harvesting at 24 h post-injury. Rats in each group were weightd prior to treatment to ensure proper dosage. The first injection at 1 h after surgery was given intraperitoneally to ensure rapid adsorption. All subsequent injections were made subcutaneously for gradual adsorption at 6 and 24 h. Injection times and neurosteroid doses were based on previous results of neurosteroid treatment (Roof et al., Twenty First Annual Meeting of the Society for Neuroscience, Miami Beach Fla., p. 191 and He et al., Exp. Neurol. 2004, 189, 404-412). The sterioids were dissolved in vehicle (22.5% 2-hydroxypropyl-b-cyclodextrin solution) at 4 mg/kg. The sham group received no treatment and injury control group received vehicle only.
At 24 h after traumatic brain injury flresh brains were extracted from the skull and the dorsal cerebrum was separated along the line of the lateral fissure. Four 3-mm coronal sections were cut rostral to caudal, placed in pre-weighed 1.5 mL tubes and re-weighed (wet weight). Tubes were then left uncapped and placed in a vacuum oven set at 60° C. with an atmospheric pressure of 0.3 for 48 h. Following tube recapping, the tissue samples were again weighed (dry weight). Cerebral edema (% water content) was determined as the difference in wet and dry weights divided by wet weight (Roof and Stein Restor. Neurol. Ncurosci., 1992, 4, 425-427). Edema measures are reflective of the difference inwater content between at the average of the two most rostral (injury region) segments and most caudal (occipital cortex) segments of the dorsal sections of the brain.

CC(=O)[C@H]1CCC2C3CCC4=CC(=O)CC[C@]4(C)C3CC[C@@]21C (stereo partly drawn) [progesterone]
increase in p-ERK1/2 level compared to control group [1]: 2 ×
edema compared to subjects treated with vehicle ([2]; 24 hours post brain injury): decrease in edema
mean % difference edema ([2]; brain tissue 24 hours post brain injury, i.p. at 1 h, s.c. at 6 and 24 h): 2.0%
